Results as given in US10308641B2, “Crystal form of 3-(6-(1-(2,2-difluorobenzo[d][1,3]dioxole-5-yl)cyclopropane formamido)-3-methylpyridine-2-yl)benzoic acid and preparation method thereof” (CRYSTAL PHARMATECH CO., LTD., priority 2015, dated 2019).
In brackets after ≈: the same amount, converted by molar mass.

How the values were obtained:
Format in all cases: physicochemical
[1] = Solubility comparison, saturated solutions in SGF, FeSSIF, FaSSIF and water, by HPLC; settings: for Solubility FeSSIF: pH5.0 FeSSIF; for Solubility FaSSIF: pH6.5 FaSSIF
Protocol: Crystalline Form A of the present disclosure and Form I disclosed in CN101910156A are prepared into saturated solution in SGF (Simulated gastric fluids), pH5.0 FeSSIF (Fed state simulated intestinal fluids), pH6.5 FaSSIF (Fasted state simulated intestinal fluids) and water. Concentrations in the saturation solutions were tested after 1 hour, 4 hours and 24 hours by HPLC.

[2] = as above; settings: FaSSIF, FeSSIF and H2O after 1 hour, 2 hours and 24 hours
[3] = Stability assessment on storage (XRPD and purity)
Protocol: The crystalline Form A of the compound of formula (I) of the present disclosure was stored under 25° C./60% RH and 40° C./75% RH for 90 days. XRPD and purity of the samples were collected after storing for 15 days, 30 days and 90 days. […] The XRPD results of crystalline Form A before and after storing under 25° C./60% RH and 40° C./75% RH for 90 days are depicted in FIG. 7 (FIG. 7: the top, middle and bottom are initial crystalline Form A, crystalline Form A after storing at 25° C./60% RH and 40° C./75% RH for 90 days respectively).

[4] = Hygroscopicity assessment by dynamic vapor sorption (DVS); settings: for Weight Gain under 80% Relative Humidity: DVS
Protocol: Dynamic vapor sorption (DVS) data in the present disclosure was acquired by a SMS (Surface Measurement Systems Ltd.) DVS Intrinsic. About 10 mg of crystalline Form A of present disclosure was used for DVS test. The parameters of the dynamic vapor sorption (DVS) method of the present disclosure were as follows:
Gas and flow rate: N2, 200 mL/min
RH range: 0% RH to 95% RH
Maximum equilibrate time: 180 min
Humidity gradient: 10% (0% RH-90% RH), 5% (90% RH-95% RH).
About 12.2 mg of crystalline Form A of the present disclosure was used for hygroscopicity testing using dynamic vapor sorption (DVS), crystalline Form A underwent a 0-95%-0 cycle of the relative humidity (RH) change. 4. The XRPD patterns of crystalline Form A before and after hygroscopicity assessment are depicted in FIG. 6. The pattern above is before DVS and the below one is after DVS.
About hygroscopicity characterization description and definition of hygroscopicity (Chinese Pharmacopoeia 2010 edition appendix XIV Drug hygroscopic test guidelines, test at 25° C.+/−1° C., 80% Relative Humidity) • deliquescent: sufficient water is absorbed to form a liquid. • very hygroscopic: increase in mass is equal to or greater than 15%. • hygroscopic: increase in mass is less than 15% and equal to or greater than 2%. • slightly hygroscopic: increase in mass is less than 2% and equal to or greater than 0.2%. • no or almost no hygroscopic: increase in mass is less than 0.2%.

Compound | Solubility H2O ([1]; H2O, 1 hour) [µg/mL] | Solubility H2O ([1]; H2O, 4 hours) [µg/mL] | Solubility SGF ([1]; 1 hour) [µg/mL] | Solubility SGF ([1]; 4 hours) [µg/mL] | Solubility SGF ([1]; 24 hours) [µg/mL] | Solubility FeSSIF ([1]; 1 hour) [µg/mL] | Solubility FeSSIF ([1]; 4 hours) [µg/mL] | Solubility FeSSIF ([1]; 24 hours) [µg/mL] | Solubility FaSSIF ([1]; 1 hour) [µg/mL] | Solubility FaSSIF ([1]; 4 hours) [µg/mL] | Solubility FaSSIF ([1]; 24 hours) [µg/mL] | further results
Cc1ccc(NC(=O)C2(c3ccc4c(c3)OC(F)(F)O4)CC2)nc1-c1cccc(C(=O)O)c1 [Form A, 3-(6-(1-(2,2-difluorobenzo [d] [1,3]dioxol-5-yl)cyclopropanecarboxamido)-3-methylpyridin-2-yl) benzoic acid] | 8.6 (≈ 19 µM) | 16 (≈ 35.4 µM) | 0.9 (≈ 1.99 µM) | 1.9 (≈ 4.2 µM) | 2 (≈ 4.42 µM) | 17 (≈ 37.6 µM) | 18 (≈ 39.8 µM) | 20 (≈ 44.2 µM) | 8.2 (≈ 18.1 µM) | 11 (≈ 24.3 µM) | 9.5 (≈ 21 µM) | solubility at 24 h ([1]; water, thermodynamic from solid, H2O, 24 hours): 25 µg/mL (≈ 55.3 µM); Solubility compared with Form I disclosed in CN101910156A [2]: higher; Stability (Purity %) 25° C./60% RH ([3]; 25° C./60% RH, 15 days): 99.94%; Stability (Purity %) 25° C./60% RH ([3]; 25° C./60% RH, 30 days): 99.90%; Stability (Purity %) 25° C./60% RH ([3]; 25° C./60% RH, 90 days): 99.93%; Stability under long-term stability condition ([3]; 25° C./60% RH, 90 days, XRPD and purity): stable; Stability (Purity %) 25° C./60% RH ([3]; 25° C./60% RH, Initial): 99.82%; Stability (Purity %) 40° C./75% RH ([3]; 40° C./75% RH, 15 days): 99.94%; Stability (Purity %) 40° C./75% RH ([3]; 40° C./75% RH, 30 days): 99.94%; Stability (Purity %) 40° C./75% RH ([3]; 40° C./75% RH, 90 days): 99.94%; Stability under accelerated stability condition ([3]; 40° C./75% RH, 90 days, XRPD and purity): stable; Stability (Purity %) 40° C./75% RH ([3]; 40° C./75% RH, Initial): 99.82%; Crystalline form after DVS test (XRPD before and after) ([4]; 0-95%-0 RH cycle): didn't change; Hygroscopicity class ([4]; Chinese Pharmacopoeia 2010 criteria, 25° C., 80% RH): non-hygroscopic or almost non-hygroscopic; Weight Gain under 80% Relative Humidity ([4]; 25° C., 80% RH, listed as Crystalline Form A of the compound of formula (I)): 0.10%; Weight Gain under 80% Relative Humidity ([4]; 25° C., 80% RH, listed as crystalline Form A of the compound of formula (I)): 0.10%
Cc1ccc(NC(=O)C2(c3ccc4c(c3)OC(F)(F)O4)CC2)nc1-c1cccc(C(=O)O)c1 [Form I, 3-(6-(1-(2,2-difluorobenzo [d] [1,3]dioxol-5-yl)cyclopropanecarboxamido)-3-methylpyridin-2-yl) benzoic acid, reference compound] | 2.2 (≈ 4.86 µM) | 6.7 (≈ 14.8 µM) | 0.4 (≈ 0.884 µM) | <0.22 | <0.21 | 5.5 (≈ 12.2 µM) | 5.9 (≈ 13 µM) | 5.5 (≈ 12.2 µM) | 2.3 (≈ 5.08 µM) | 1.5 (≈ 3.32 µM) | 0.9 (≈ 1.99 µM) | Solubility H2O ([1]; H2O, 24 hours): 16 µg/mL (≈ 35.4 µM)
